The numbers were not newly measured in patent publication US20240318128A1, “BIOFUNGICIDE PRODUCTION BY CONIOCHAETA AND APPLICATION IN CONTROL OF EARLY BLIGHT OF POTATO” (The United States of America, as represented by the …, priority 2023, published 2024), which cites them from elsewhere.

For the series, the system named is yeast and bacteria. The conditions noted are these: Segeth et al. 2003.

coniocetin: the spectrum of inhibition entry is “inhibits”.
